Tests used:
[1] = test system: L-1210 leukemia; assay: first experiment: L-1210 leukemia in mice, T/C percentage and long term survival; type: in vivo; settings: for Survival after 60 days: survivors/animals; for antitumor activity (in words): versus c-DDP and ligand alone
Experimental: Pt(DMSO)Cl2 ].2HCl.H2 O (coded BBR 1651), water soluble, and cis-[1,4-bis-[2-(2-hydroxyethylamino)ethylamino]-5,8-dihydroxy-9,10-anthracenedione.PtCl2 ].2HCl.H2 O (coded BBR 1734) are tested in comparison with equimolecular dosages of 1,4-bis-[2-(2-hydroxyethylamino)ethylamino]-5,8-dihydroxy-9,10-anthracenedione (DHAQ.2HCl) and with c-DDP dosed at 7 mg/kg, against L-1210 leukemia in mice. Groups of 10 animals, treated with intraperitoneal injections of […] L-1210 cells, have been used at each dosage level, evaluating T/C percentage and long term survival, i.e. more than sixty days.
(§1) T/C percentage represents the percentual ratio of the mean survival time of the treated animals in comparison with the mean survival time of the control animals according to the methods described in "Anthracycline antibiotics" H. S. E. R Rhadem Edit., Academic Press, 1982.
(§2) LTS represents number of long-term (over 60 days) surviving animals with no pathologic episodes (i.e. cured animals).
A percentage of T/C over 120 indicates antitumoral activity; a percentage of T/C under 85 indicates toxicity.

[2] = test system: L-1210 leukemia sensitive to c-DDP; assay: second experiment: L-1210 leukemia sensitive to c-DDP, T/C, LTS, TOX; type: in vivo, mice; settings: for percentage of survivors at 60 days: 8.7.10^-6 mol/kg; for TOX (3): toxic deaths; for T/C percentage: L-1210 leukemia (sensitive to Pt), c-DDP 7 mg/kg, BBR 1734 1.55 mg/kg, BBR 1735 8 mg/kg
Text: as §1, §2
(§3) (1) T/C: Mean survival time of treated mice/mean survival time of control
(untreated) mice × 100.
Mean survival time of treated mice is referred to dying animals only.
(2) LTS: Longterm survivors (>60 days), i.e. cured animals. Mean survival
(§4) (3) TOX: Toxic deaths are referred to animals dead before control animals
(§5) or to animals showing macroscopic toxic symptoms without tumor.
The data reported in Table 2 are the means of two subsequent experiments.

[3] = test system: c-DDP resistant L-1210 leukemia; assay: c-DDP resistant L-1210 leukemia, T/C, LTS, TOX; type: in vivo, mice; settings: for activity (in words): animals injected with cis-platin resistant leukemia cells; for TOX (3): toxic deaths
Text: as §1, §3
(untreated) mice × 100. Mean survival time of treated mice is
referred to dying animals only. N.ev.: not evaluable as consequence of th
(2) LTS: Longterms survivors (>30 days), i.e. cured animals.
as §4, §5

[4] = Acute toxicity (LD50) in mouse; type: in vivo; settings: intraperitoneal route
[5] = body weight, kidney weight and ureic nitrogen (nephrotoxicity) at LD50 doses; type: in vivo, mouse; settings: i.v.; for general toxicity / body weight (in words) / renal toxicity (in words): LD50 doses; for % Δ of the body weight / Final body weight / Kidney weight / Kidney weight g/100 of body weight / Initial body weight / Ureic Nitrogen: dose corresponding to respective LD50; for Initial body weight: before treatment; for Ureic Nitrogen: urea content
Experimental: The percent decrease of the body weight, the kidney weight and the ureic nitrogen excretion were determined for each treated group. The increase of kidney weight and the increase of ureic plasma content were assumed as nephrotoxic index of the compounds (see for example O. Tofanetti et al., "Tumori", 69, 105, 1983).

[6] = test system: genito-urinary tumors, head and neck cancer, osteogenic sarcoma; settings: human, in vivo; cited from earlier work
[7] = 1.93 × 10^-6 moles/kg (BBR 1734 1.55, BBR 1651 1.85, DHAQ.2HCl 1.00 mg/kg)
[8] = 3.86 × 10^-6 moles/kg (BBR 1734 3.10, BBR 1651 3.70, DHAQ.2HCl 2.00 mg/kg)
[9] = 7.73 × 10^-6 moles/kg (BBR 1734 6.20, BBR 1651 7.40, DHAQ.2HCl 4.00 mg/kg)
[10] = 1.93 × 10^-6 moles/kg (DHAQ.2HCl 1.0, BBR 1651 1.85 mg/kg)
[11] = 3.86 × 10^-6 moles/kg (DHAQ.2HCl 2.0, BBR 1651 3.7 mg/kg)
[12] = 7.73-8.68 × 10^-6 moles/kg (DHAQ.2HCl 4.0-4.5, BBR 1651 7.4-8.32 mg/kg)
[13] = 12.93 × 10^-6 moles/kg (DHAQ.2HCl 6.7, BBR 1651 12.40 mg/kg)
[14] = 19.3 × 10^-6 moles/kg (DHAQ.2HCl 10.0, BBR 1651 18.5 mg/kg)
[15] = 19.3 × 10^-6/kg (BBR 1651 18.5 mg/kg)
[16] = 28.95 × 10^-6/kg (BBR 1651 27.75 mg/kg)
[17] = 5.79 × 10^-6/kg (DHAQ-2HCl 3.0 mg/kg)
[18] = 8.68 × 10^-6/kg (DHAQ-2HCl 4.5 mg/kg)
[19] = 21 × 10^-6 moles/kg (c-DDP 7.00 mg/kg)
[20] = 21 × 10^-6/kg (c-DDP 7.1 mg/kg)
[21] = 29.6 × 10^-6/kg (c-DDP 10.0 mg/kg)

In the case of CS(C)=O.CS(C)=O.Cl.Cl.O.O=C1c2c(O)ccc(O)c2C(=O)c2c(NCCNCCO)ccc(NCCNCCO)c21.[Cl][Pt][Cl] [BBR 1651, cis-[1,4-bis-[2-(2-hydroxyethylamino)ethylamino]-5,8-dihydroxy-9,10-anthracenedione. Pt(DMSO)Cl2].2HCl.H2 O], the “% T/C” value [1, 7] is reported as 195%, the “Survival after 60 days” value [1, 7] is reported as 0/10 and the “% T/C” value [1, 8] is reported as 220%. The “Survival after 60 days” value [1, 8] was 1/10, the “Survival after 60 days” value [1, 9] was 7/10 and the “antitumor activity (in words)” value [1] was “good activities with better results than those obtained using the known c-DDP and the aminoanthracenedione ligand alone”. For the same molecule, the T/C ([2]; 1.39.10^-6 g/atom of Pt) was 200, the “LTS (2) (>60 days)” value [2, 10] was 0/10 and the “T/C (1) %” value [2, 10] was 200%. For the same molecule, the “LTS (2) (>60 days)” value [2, 11] was 1/10, the “T/C (1) %” value [2, 11] was 221% and the “LTS (2) (>60 days)” value [2, 12] was 15/20. For the same molecule, the “percentage of survivors at 60 days” value [2] was 90%, the “LTS (2) (>60 days)” value [2, 13] was 9/10 and the “LTS (2) (>60 days)” value [2, 14] was 9/10. The “longterms survivors (>60 days; i.e. cured animals)” value ([2]; equal platinum content) was 9, the “increase of the dead animals before control animals” value ([2]; in words) was “did not cause any increase of the dead animals before control animals” and the “activity compared with c-DDP (in words)” value ([2]; mouse, in vivo) was “extremely more active than the known c-DDP”. For the same molecule, the “TOX (3)” value [2, 10] was 0/10, the “TOX (3)” value [2, 11] was 0/10 and the “TOX (3)” value [2, 12] was 0/20. The “TOX (3)” value [2, 13] was 0/10, the “LTS (2) (>30 days)” value [3, 15] was 3/10 and the “T/C (1) %” value [3, 15] was 186%. For the same molecule, the “LTS (2) (>30 days)” value [3, 16] was 4/10, the “activity (in words)” value [3] was “active drug” and the “TOX (3)” value [3, 15] was 0/10. The “TOX (3)” value [3, 16] was 1/10.
For Cl.Cl.O.O=C1c2c(O)ccc(O)c2C(=O)c2c3ccc(c21)NCC[NH+](CCO)[Pt-2]([Cl])([Cl])[NH+](CCO)CCN3 (stereo not drawn) [BBR 1734, cis-[1,4-bis-[2-(2-hydroxyethylamino)ethylamino]-5,8-dihydroxy-9,10-anthracenedione.PtCl2].2HCl.H2 O], the “% T/C” value [1, 7] was 200%, the “Survival after 60 days” value [1, 7] was 0/10 and the “% T/C” value [1, 8] was 224%. For the same molecule, the “Survival after 60 days” value [1, 8] was 1/10, the “Survival after 60 days” value [1, 9] was 7/10 and the “antitumor activity (in words)” value [1] was “good activities with better results than those obtained using the known c-DDP and the aminoanthracenedione ligand alone”. For the same molecule, the T/C percentage [2] was about 200, the “Acute toxicity (LD50)” value [4] was 22.9 mg/kg and the “general toxicity / body weight (in words)” value [5] was “general toxicity as indicated by the decrease of the body weight”. For the same molecule, the “renal toxicity (in words)” value [5] was “do not impair the renal excretory function and/or change the relative kidney weight”, the “% Δ of the body weight” value [5] was -20.4% and the Final body weight [5] was 28.4 ± 0.775. For the same molecule, the Kidney weight [5] was 0.362 ± 0.012, the “Kidney weight g/100 of body weight” value [5] was 1.282 ± 0.036 g/100 of body weight and the Initial body weight [5] was 34.2 ± 0.731. The “Ureic Nitrogen” value [5] was 14.85 ± 0.866 100 mg/ml of plasma.
For Cl.Cl.O.O=C1c2ccccc2C(=O)c2c3ccc(c21)NCC[NH+](CCO)[Pt-2]([Cl])([Cl])[NH+](CCO)CCN3 (stereo not drawn) [BBR 1735, cis-[1,4-bis-[2-(2-hydroxyethylamino-ethyl)-amino]-9,10-anthracenedione.PtCl2].2HCl.H2 O], the T/C percentage [2] was about 200, the “Acute toxicity (LD50)” value [4] was 30.0 mg/kg and the “general toxicity / body weight (in words)” value [5] was “general toxicity as indicated by the decrease of the body weight”. For the same molecule, the “renal toxicity (in words)” value [5] was “do not impair the renal excretory function and/or change the relative kidney weight”, the “% Δ of the body weight” value [5] was -5.4% and the Final body weight [5] was 33.1 ± 1.103. The Kidney weight [5] was 0.428 ± 0.02, the “Kidney weight g/100 of body weight” value [5] was 1.293 ± 0.042 g/100 of body weight and the Initial body weight [5] was 34.9 ± 0.857. For the same molecule, the “Ureic Nitrogen” value [5] was 14.88 ± 0.565 100 mg/ml of plasma.
With O=C1c2c(O)ccc(O)c2C(=O)c2c(NCCNCCO)ccc(NCCNCCO)c21 [DHAQ.2HCl, 1,4-bis-[2-(2-hydroxyethylamino)ethylamino]-5,8-dihydroxy-9,10-anthracenedione] the “% T/C” value [1, 7] was 185%, the “% T/C” value [1, 8] was 214% and the “Survival after 60 days” value [1, 8] was 0/10. The “Survival after 60 days” value [1, 9] was 2/10, the “% T/C” value ([1]; 7.73 × 10^-6 moles/kg (DHAQ.2HCl 4.00 mg/kg)) was 235% and the “LTS (2) (>60 days)” value [2, 10] was 0/10. For the same molecule, the “T/C (1) %” value [2, 10] was 185%, the “LTS (2) (>60 days)” value [2, 11] was 0/10 and the “T/C (1) %” value [2, 11] was 214%. For the same molecule, the “T/C (1) %” value ([2]; 7.73-8.68 × 10^-6 moles/kg (DHAQ.2HCl 4.0-4.5 mg/kg), range in parenthesis) was 302 (235-369) %, the “LTS (2) (>60 days)” value [2, 12] was 8/20 and the “percentage of survivors at 60 days” value [2] was 10%. The “T/C (1) %” value ([2]; 12.93 × 10^-6 moles/kg (DHAQ.2HCl 6.7 mg/kg)) was 262%, the “LTS (2) (>60 days)” value [2, 13] was 4/10 and the “T/C (1) %” value ([2]; 19.3 × 10^-6 moles/kg (DHAQ.2HCl 10.0 mg/kg)) was 231%. For the same molecule, the “LTS (2) (>60 days)” value [2, 14] was 1/10, the “increase of death rate in comparison with the control animals” value ([2]; Higher doses of DHAQ) was “up to 90%” and the “TOX (3)” value [2, 10] was 0/10. The “TOX (3)” value [2, 11] was 0/10, the “TOX (3)” value [2, 12] was 2/20 and the “TOX (3)” value [2, 13] was 5/10. The “TOX (3)” value [2, 14] was 9/10, the “LTS (2) (>30 days)” value [3, 17] was 1/10 and the “T/C (1) %” value [3, 17] was 145%. The “LTS (2) (>30 days)” value [3, 18] was 2/10, the “T/C (1) %” value [3, 18] was 168% and the “TOX (3)” value [3, 17] was 0/10. The “TOX (3)” value [3, 18] was 0/10.
For N.N.[Cl][Pt][Cl] [c-DDP, cis-diaminodichloroplatinum^II], the “% T/C” value [1, 19] was 200%, the “Survival after 60 days” value [1, 19] was 0/10 and the “LTS (2) (>60 days)” value ([2]; 21 × 10^-6 moles/kg (c-DDP 7.1 mg/kg)) was 0/20. For the same molecule, the “T/C (1) %” value ([2]; 21 × 10^-6 moles/kg (c-DDP 7.1 mg/kg), range in parenthesis) was 193 (187-200) %, the “T/C (1) %” value ([2]; 21 × 10^-6 moles/kg (c-DDP 7.1 mg/kg), range in parenthesis, listed as cis-platin) was 193% and the “LTS (2) (>60 days)” value ([2]; 29.2 × 10^-6 moles/kg (c-DDP 10.0 mg/kg)) was 1/20. The “T/C (1) %” value ([2]; 29.2 × 10^-6 moles/kg (c-DDP 10.0 mg/kg), range in parenthesis) was 93 (87-100) %, the T/C percentage [2] was about 200 and the “LTS (2) (>30 days)” value [3, 20] was 0/10. The “T/C (1) %” value [3, 20] was 100%, the “LTS (2) (>30 days)” value [3, 21] was 0/10 and the “T/C (1) %” value [3, 21] was 100%. For the same molecule, the “activity (in words)” value [3] was “uneffective”, the “clinical activity (in words)” value [6] was “activity is well demonstrated” and the “serious side effects (in words)” value [6] was “gastrointestinal (nausea and vomiting often severe and prolungated), renal (dose-limiting renal insufficiency), hematological, neurological (ototoxicity) complications”.

Source: US4732893A, “Amino-anthracenediones-platinum complexes useful as anticancer compounds” (priority 1984, dated 1988)
